Like-named read-outs stand apart in the source and are kept apart here.
Assay: tissue distribution pharmacokinetics after single i.p. administration
Type: in vivo, rat
Conditions: male, Wistar, rat, ip; for Tmax: read-out: Tmax (converted); for Cmax: read-out: Cmax
Experimental: Standard laboratory food (LSM-B) and filtered water as well as environment enrichment were freely available. Animals were randomly divided into treatment groups using a computer-based random order generator. All of the experiments were performed by two observers unaware of the treatment applied between 9:00 and 14:00 on separate groups of animals. Rats were injected with the investigated compounds once (in pharmacokinetic studies) and for 21 days (in behavioral studies), and afterward, behavioral tests were conducted and tissue collection was done, as required. For pharmacokinetic studies, animals were fasted prior to dosing by withholding food but not water overnight. After dosing, the food was withheld for an additional 8 h. All animals were used only once. Animals were handled every day and weighed every other day in the chronic part of the experiment. Procedures involving animals and their care were conducted in accordance with current European Community and Polish legislations on animal experimentation. Additionally, all efforts were made to minimize animals' suffering and to use only the number of animals necessary to produce reliable scientific data. The experimental protocols and procedures described were approved by the I Local Ethics Commission in Cracow (nos 309/2019 and 765/2023) and complied with the European Communities Council Directive of 24 November 24, 1986 (86/609/EEC) and were in accordance with the 1996 NIH Guide for the Care and Use of Laboratory Animals. The research program complies with the commonly accepted '3Rs' (replacement and reduction of animals, refinement of experimental conditions, and procedures to minimize the harm to animals). […] Moreover, five tissues (i.e., brain, heart, lungs, kidneys, and liver) were harvested and rinsed with cold saline. Blood was allowed to clot at room temperature for 15-20 min and then centrifuged (3000 rpm for 10 min). The obtained serum and tissues were stored at -80 °C until analysis. […] HPLC analysis with UV detection at 221 nm was performed at a 1 mL/min flow rate, and the column temperature was 38 °C. Before analysis, tissue samples were thawed, weighed (200-250 mg), and placed in 5 mL plastic tubes with four volumes (w/v) of PBS (pH 7.4) and homogenized individually using a […]-1 homogenizer (ART Prozess & Labortechnik GmbH & Co., Germany). […] The samples were alkalized with 50 μL of 4 M sodium hydroxide solution, vortex-mixed, and extracted with 1 mL of ethyl acetate/hexane (30/70, v/v) mixture on a shaker (VXR Vibrax, IKA, Germany) for 20 min. […] Then, the samples were shaken and centrifuged again. Finally, 60-90 μL of each acidic layer was injected into the HPLC system. […] The interday and intraday precision and accuracy of quality control samples evaluated in the serum and tissue homogenates were within 15%. […] The area under the serum concentration-time curve from time zero to time t (AUC0-t), where t is the time of the last measurable sample, was calculated according to the linear trapezoidal rule. The AUC from time zero to infinity (AUC0-∞) was estimated as AUC0-t + Ct/λz, where Ct was the serum concentration of the last measurable sample. The clearance (CL/F) was calculated as D/AUC0-∞, and the volume of distribution based on the terminal phase (Vz/F) was estimated as D/(λz·AUC0-∞), where F is the bioavailability of intraperitoneal administration. The MRT is calculated to be […], where AMUC0-∞ is the area under the first moment curve from the time of dosing to infinity. The peak serum concentration (Cmax) and the time to reach Cmax (Tmax) were read directly from the observations. […] Data were presented as mean ± SD.

[1] = kidneys, 0.3 mg/kg, kidneys, 0.3 mg/kg i.p.
[2] = kidneys, 1 mg/kg, kidneys, 1.0 mg/kg i.p.
[3] = liver, 0.3 mg/kg, liver, 0.3 mg/kg i.p.
[4] = liver, 1 mg/kg, liver, 1.0 mg/kg i.p.
[5] = lungs, 0.3 mg/kg, lungs, 0.3 mg/kg i.p.
[6] = lungs, 1 mg/kg, lungs, 1.0 mg/kg i.p.

## CN1CCN(c2nc(N)nc(C(C)(C)Sc3ccc4ccccc4c3)n2)CC1 [WA-22, 4-(4-methylpiperazin-1-yl)-6-(2-(naphthalen-2-ylthio)propan-2-yl)-1,3,5-triazin-2-amine]
heart, 1 mg/kg, heart, 1.0 mg/kg i.p.
  Tmax: 5 min
heart/serum, 0.3 mg/kg, heart, 0.3 mg/kg i.p., read-out: AUC ratio (tissue-to-serum AUC0–t)
  Kp: 2 ± 0.52
heart/serum, 1 mg/kg, heart, 1.0 mg/kg i.p., read-out: AUC ratio (tissue-to-serum AUC0–t)
  Kp: 2.63 ± 1.69
heart/serum, 1 mg/kg, heart-to-serum, 1 mg/kg i.p., read-out: AUC0–∞ (ng·h/g)/AUC0–∞ (ng·h/mL)
  Kp: 2.09 ± 2.71
heart/serum, 1 mg/kg, heart-to-serum, 1 mg/kg i.p., read-out: Cmax (ng/g)/Cmax (ng/mL)
  Kp: 2.61 ± 1.09
brain, 0.3 mg/kg i.p.
  MRT: 64.4 min
brain, 1.0 mg/kg i.p.
  MRT: 90.6 min
heart, 0.3 mg/kg i.p.
  MRT: 104 min
heart, 1.0 mg/kg i.p.
  MRT: 109 min
kidneys, 0.3 mg/kg i.p.
  MRT: 85.3 min
kidneys, 1.0 mg/kg i.p.
  MRT: 107 min
liver, 0.3 mg/kg i.p.
  MRT: 40.6 min
liver, 1.0 mg/kg i.p.
  MRT: 51.3 min
lungs, 0.3 mg/kg i.p.
  MRT: 130 min
lungs, 1.0 mg/kg i.p.
  MRT: 72.6 min
[1]
  Cmax: 72.3 ± 27.1 ng/g
  Tmax: 5 min
[2]
  Cmax: 247 ± 119 ng/g
  Tmax: 5 min
kidneys/serum, 0.3 mg/kg, kidneys, 0.3 mg/kg i.p., read-out: AUC ratio (tissue-to-serum AUC0–t)
  Kp: 3.93 ± 1.88
kidneys/serum, 1 mg/kg, kidneys, 1.0 mg/kg i.p., read-out: AUC ratio (tissue-to-serum AUC0–t)
  Kp: 5.47 ± 3.33
kidneys/serum, 1 mg/kg, kidneys-to-serum, 1 mg/kg i.p., read-out: AUC0–∞ (ng·h/g)/AUC0–∞ (ng·h/mL)
  Kp: 4.96 ± 3.2
kidneys/serum, 1 mg/kg, kidneys-to-serum, 1 mg/kg i.p., read-out: Cmax (ng/g)/Cmax (ng/mL)
  Kp: 3.41 ± 0.59
Liver (relative to serum), 1 mg/kg, liver, 1.0 mg/kg i.p., read-out: AUC ratio (tissue-to-serum AUC0–t)
  Kp: 6.32 ± 4.96
[3]
  Cmax: 149 ± 34.8 ng/g
  Tmax: 5 min
[4]
  Cmax: 404 ± 101 ng/g
  Tmax: 5 min
liver/serum, 0.3 mg/kg, liver, 0.3 mg/kg i.p., read-out: AUC ratio (tissue-to-serum AUC0–t)
  Kp: 4.75 ± 1.57
liver/serum, 1 mg/kg, liver-to-serum, 1 mg/kg i.p., read-out: AUC0–∞ (ng·h/g)/AUC0–∞ (ng·h/mL)
  Kp: 5.11 ± 3.85
liver/serum, 1 mg/kg, liver-to-serum, 1 mg/kg i.p., read-out: Cmax (ng/g)/Cmax (ng/mL)
  Kp: 6.3 ± 2.69
Lungs (relative to serum), 1 mg/kg, lungs, 1.0 mg/kg i.p., read-out: AUC ratio (tissue-to-serum AUC0–t)
  Kp: 14.1 ± 5.62
[5]
  Cmax: 214 ± 45.7 ng/g
  Tmax: 5 min
[6]
  Cmax: 744 ± 88.9 ng/g
  Tmax: 5 min
lungs/serum, 0.3 mg/kg, lungs, 0.3 mg/kg i.p., read-out: AUC ratio (tissue-to-serum AUC0–t)
  Kp: 11.1 ± 2.57
lungs/serum, 1 mg/kg, lungs-to-serum, 1 mg/kg i.p., read-out: AUC0–∞ (ng·h/g)/AUC0–∞ (ng·h/mL)
  Kp: 13.9 ± 7.95
lungs/serum, 1 mg/kg, lungs-to-serum, 1 mg/kg i.p., read-out: Cmax (ng/g)/Cmax (ng/mL)
  Kp: 15 ± 7.31

— article PMC11926880, “Procognitive Potential of Neuroprotective Triazine 5-HT6 Receptor Antagonists Tested on Chronic Activity In Vivo in Rats: Computer-Aided Insight into the Role of Chalcogen-Differences on the Pharmacological Profile” (ACS Chemical Neuroscience, 2025)
